Test [1] concerns the target PIK3CD (Human) (UniProt O00329). Briefly: Evaluation of PIK3CD inhibitors on Neutrophil Migration. The settings on record: pmn.
Test [2] deals with PIK3CD (mouse). Briefly: Assessment of Stimulus Induced B Cell Proliferation. The settings on record: b cells.
Test [3] deals with PIK3CD (Human) (UniProt O00329). Briefly: Evaluation of PIK3CD inhibitors on Basophil Function by Histamine Release Assay. Particulars: basophils.
The target is the same in test [4]. In words: Evaluation of PIK3CD inhibitors on Elastase Release in Human PMN Cells.
Test [5] has the same target. In words: Assessment of Stimulus Induced TCE Cell Proliferation. Particulars: t cells.
The next test concerns the target PIK3CB (UniProt P42338). In words: Inhibition of PIK3CB Kinase Activity. Particulars: for inhibition: concentration not given here.
In a further test the target is PIK3CG (UniProt P48736). Briefly: Inhibition of PIK3CG Kinase Activity. The settings on record: for inhibition: concentration not given here.
The next test addresses PIK3CA (UniProt P42336). Briefly: Inhibition of PIK3CA Kinase Activity. The settings on record: for inhibition: concentration not given here.
The target of a further test is PIK3CD (UniProt O00329). Briefly: Inhibition of PIK3CD Kinase Activity.
For test [6], the target named is PIK3CD (Human) (UniProt O00329). Briefly: Assessment of RWLeu4 Cell Proliferation.
Test [7] has as its system PIK3CD (mouse). Briefly: Evaluation of PIK3CD inhibitors on Osteoclast Function. The settings on record: bone marrow, dose or concentration not given here.
Test [8] concerns the target PIK3CD (Human) (UniProt O00329). Briefly: Assessment of Cell Proliferation in KU812 Cells.

This is an account of results in the Kinase Knowledgebase extract (Sharma et al. 2016).

The structures appear in SMILES notation. Values joined by “and” are separate entries in the source; they are usually repeats but may differ in a detail not shown here. Identical values can stand only once.

Sequence of PIK3CB (P42338 whole entry, looked up): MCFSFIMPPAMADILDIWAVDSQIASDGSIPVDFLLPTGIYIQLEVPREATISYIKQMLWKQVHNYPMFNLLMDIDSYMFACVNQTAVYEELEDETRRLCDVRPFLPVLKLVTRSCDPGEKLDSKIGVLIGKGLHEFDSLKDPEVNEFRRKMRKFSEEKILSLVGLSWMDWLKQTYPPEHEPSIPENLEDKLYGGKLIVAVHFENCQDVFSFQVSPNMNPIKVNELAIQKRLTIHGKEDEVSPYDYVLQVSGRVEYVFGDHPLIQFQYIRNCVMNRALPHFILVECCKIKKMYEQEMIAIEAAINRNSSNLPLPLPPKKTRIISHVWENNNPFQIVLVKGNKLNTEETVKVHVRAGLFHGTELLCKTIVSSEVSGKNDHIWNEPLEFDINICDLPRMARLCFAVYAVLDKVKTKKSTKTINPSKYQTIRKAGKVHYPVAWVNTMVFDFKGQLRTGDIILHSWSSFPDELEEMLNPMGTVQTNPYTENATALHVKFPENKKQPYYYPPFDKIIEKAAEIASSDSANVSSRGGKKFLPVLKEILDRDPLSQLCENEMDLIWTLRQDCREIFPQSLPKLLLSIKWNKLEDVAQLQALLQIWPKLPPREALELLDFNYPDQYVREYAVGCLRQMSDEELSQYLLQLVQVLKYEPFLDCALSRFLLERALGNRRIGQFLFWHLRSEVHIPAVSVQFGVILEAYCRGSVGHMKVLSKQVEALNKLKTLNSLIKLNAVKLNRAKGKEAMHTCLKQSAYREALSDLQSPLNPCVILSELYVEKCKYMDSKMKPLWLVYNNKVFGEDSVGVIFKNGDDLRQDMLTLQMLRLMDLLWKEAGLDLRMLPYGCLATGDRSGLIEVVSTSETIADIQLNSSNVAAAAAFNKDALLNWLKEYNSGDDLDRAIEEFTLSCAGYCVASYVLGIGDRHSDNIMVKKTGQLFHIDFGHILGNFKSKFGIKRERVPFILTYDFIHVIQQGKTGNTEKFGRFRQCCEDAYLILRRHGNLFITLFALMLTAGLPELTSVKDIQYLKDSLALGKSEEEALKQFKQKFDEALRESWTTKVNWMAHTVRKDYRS
Sequence of PIK3CG (P48736 whole entry, looked up): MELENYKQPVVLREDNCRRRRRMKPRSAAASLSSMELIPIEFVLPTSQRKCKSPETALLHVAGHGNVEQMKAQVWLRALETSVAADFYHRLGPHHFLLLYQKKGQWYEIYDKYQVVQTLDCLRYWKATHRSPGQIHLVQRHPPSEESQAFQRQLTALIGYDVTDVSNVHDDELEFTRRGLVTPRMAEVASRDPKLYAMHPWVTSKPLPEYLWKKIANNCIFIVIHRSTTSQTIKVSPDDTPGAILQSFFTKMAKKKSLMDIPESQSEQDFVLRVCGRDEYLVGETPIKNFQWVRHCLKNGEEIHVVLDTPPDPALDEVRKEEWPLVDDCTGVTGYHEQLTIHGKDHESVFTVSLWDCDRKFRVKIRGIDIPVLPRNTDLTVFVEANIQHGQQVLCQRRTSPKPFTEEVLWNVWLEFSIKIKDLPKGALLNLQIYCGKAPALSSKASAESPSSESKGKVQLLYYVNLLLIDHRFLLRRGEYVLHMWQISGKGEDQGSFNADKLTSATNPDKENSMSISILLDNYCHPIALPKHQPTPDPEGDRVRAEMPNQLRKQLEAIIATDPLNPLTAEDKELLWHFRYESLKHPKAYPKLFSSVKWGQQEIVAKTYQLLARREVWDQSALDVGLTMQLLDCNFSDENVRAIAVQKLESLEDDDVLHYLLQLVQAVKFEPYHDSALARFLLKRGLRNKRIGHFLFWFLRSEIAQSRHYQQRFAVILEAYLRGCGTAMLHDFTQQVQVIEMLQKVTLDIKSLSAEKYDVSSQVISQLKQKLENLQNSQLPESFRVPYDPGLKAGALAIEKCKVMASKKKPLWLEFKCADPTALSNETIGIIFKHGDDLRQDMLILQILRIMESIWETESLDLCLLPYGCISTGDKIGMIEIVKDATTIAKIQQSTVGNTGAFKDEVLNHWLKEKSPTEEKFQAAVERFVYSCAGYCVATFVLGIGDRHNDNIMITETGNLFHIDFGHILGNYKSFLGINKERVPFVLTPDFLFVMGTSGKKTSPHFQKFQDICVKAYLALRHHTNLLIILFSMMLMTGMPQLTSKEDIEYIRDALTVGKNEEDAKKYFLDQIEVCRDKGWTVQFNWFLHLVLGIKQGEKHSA
Sequence of PIK3CA (P42336 whole entry, looked up): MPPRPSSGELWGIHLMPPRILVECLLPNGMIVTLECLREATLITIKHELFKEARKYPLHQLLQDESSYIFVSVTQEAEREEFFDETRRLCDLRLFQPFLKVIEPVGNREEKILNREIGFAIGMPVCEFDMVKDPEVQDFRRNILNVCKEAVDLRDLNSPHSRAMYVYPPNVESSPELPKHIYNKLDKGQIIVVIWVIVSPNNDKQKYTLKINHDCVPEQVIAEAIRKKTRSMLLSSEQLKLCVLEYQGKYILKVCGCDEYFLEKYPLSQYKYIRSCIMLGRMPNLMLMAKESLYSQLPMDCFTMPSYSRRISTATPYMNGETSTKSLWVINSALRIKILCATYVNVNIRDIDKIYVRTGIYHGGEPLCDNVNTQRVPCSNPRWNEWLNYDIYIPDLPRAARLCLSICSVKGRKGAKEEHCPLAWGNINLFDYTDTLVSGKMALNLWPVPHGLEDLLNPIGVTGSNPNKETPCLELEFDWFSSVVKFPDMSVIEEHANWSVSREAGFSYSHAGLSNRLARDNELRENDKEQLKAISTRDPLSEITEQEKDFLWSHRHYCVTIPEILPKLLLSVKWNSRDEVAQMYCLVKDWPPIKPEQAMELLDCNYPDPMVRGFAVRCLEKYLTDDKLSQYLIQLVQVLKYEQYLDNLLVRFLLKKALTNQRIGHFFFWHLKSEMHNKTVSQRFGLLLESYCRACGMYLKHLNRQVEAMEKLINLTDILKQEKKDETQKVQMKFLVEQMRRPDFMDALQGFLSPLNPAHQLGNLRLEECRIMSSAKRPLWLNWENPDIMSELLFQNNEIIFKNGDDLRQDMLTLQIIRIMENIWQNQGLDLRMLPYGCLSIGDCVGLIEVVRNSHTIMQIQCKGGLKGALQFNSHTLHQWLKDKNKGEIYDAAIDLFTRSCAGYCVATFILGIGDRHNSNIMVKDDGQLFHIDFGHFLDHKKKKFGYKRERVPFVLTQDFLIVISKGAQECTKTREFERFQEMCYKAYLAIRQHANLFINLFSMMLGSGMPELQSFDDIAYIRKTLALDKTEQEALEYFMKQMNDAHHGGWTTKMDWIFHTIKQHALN
Sequence of PIK3CD (Human) (O00329 whole entry, looked up): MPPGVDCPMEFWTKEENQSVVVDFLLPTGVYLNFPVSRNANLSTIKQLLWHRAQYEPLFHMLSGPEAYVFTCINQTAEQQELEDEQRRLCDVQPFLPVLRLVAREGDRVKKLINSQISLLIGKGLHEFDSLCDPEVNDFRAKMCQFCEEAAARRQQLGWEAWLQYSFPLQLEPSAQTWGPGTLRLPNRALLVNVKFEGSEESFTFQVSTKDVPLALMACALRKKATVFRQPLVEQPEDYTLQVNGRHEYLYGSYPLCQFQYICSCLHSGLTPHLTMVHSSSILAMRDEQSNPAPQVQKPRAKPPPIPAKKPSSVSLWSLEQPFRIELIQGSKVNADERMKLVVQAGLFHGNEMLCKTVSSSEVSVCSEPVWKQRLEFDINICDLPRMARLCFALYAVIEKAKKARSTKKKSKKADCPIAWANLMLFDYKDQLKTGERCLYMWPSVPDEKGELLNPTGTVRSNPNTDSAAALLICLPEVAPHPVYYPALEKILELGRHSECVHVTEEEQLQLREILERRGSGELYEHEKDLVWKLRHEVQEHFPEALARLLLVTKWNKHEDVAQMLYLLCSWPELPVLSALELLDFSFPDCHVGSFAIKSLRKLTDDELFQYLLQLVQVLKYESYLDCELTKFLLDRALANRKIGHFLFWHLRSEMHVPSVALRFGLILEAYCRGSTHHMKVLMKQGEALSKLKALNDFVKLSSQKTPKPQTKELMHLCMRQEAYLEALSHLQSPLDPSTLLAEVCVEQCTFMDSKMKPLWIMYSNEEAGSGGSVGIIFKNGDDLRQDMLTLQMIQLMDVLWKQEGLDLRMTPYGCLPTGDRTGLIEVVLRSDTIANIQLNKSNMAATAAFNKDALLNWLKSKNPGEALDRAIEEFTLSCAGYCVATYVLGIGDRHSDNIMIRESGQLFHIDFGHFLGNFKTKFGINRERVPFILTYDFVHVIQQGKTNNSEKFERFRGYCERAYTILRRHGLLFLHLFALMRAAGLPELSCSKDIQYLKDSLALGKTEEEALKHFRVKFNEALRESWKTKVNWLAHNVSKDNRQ
Sequence of PIK3CD (O00329 whole entry, looked up): as above

`Cc1cccc2nc(CSc3ncnc4[nH]cnc34)n(-c3ccccc3Cl)c(=O)c12`: the EC50 (in general, the concentration at which the effect is half-maximal) at PIK3CD (Human) [1] amounted to 300 nM; in the test on PIK3CD (mouse) [2], 300 nM; on PIK3CD (Human) [3], 25 nM; on PIK3CD (Human) [4], 200 nM; on PIK3CD (Human) [5] it was 3500 nM.

Consider `Nc1ncnc2c1ncn2Cc1nc2cccc(Cl)c2c(=O)n1-c1ccccc1F`, for which the concentration for half-maximal inhibition (IC50) (usually the concentration at which inhibition is half-maximal) at PIK3CB is 108000 nM and 11000 nM; against PIK3CG, 50000 nM. Moreover, the EC50 in the test on PIK3CD (mouse) [2] and at PIK3CD (Human) [4] was 300 nM in each case.

Regarding `O=c1c2ccccc2nc(CSc2ncnc3[nH]cnc23)n1N1CCOCC1`, the inhibition – broadly, the change of the read-out against control, counted positive when it falls – at PIK3CG stood at 57%. In addition, the EC50 came out at 900 nM with PIK3CD (mouse) [2] and 5000 nM at PIK3CD (Human) [4].

On PIK3CG, `COc1cccc(Cn2c(CSc3ncnc4[nH]cnc34)nc3ccccc3c2=O)c1` gave an IC50 of 72000 nM.

Compound `O=c1c2ccc(F)cc2nc(CSc2ncnc3[nH]cnc23)n1-c1ccccc1Cl` showed an IC50 at PIK3CB of 110000 nM. The inhibition was -1% at PIK3CB and 40% against PIK3CG. In addition, the figures for the EC50 in the test with PIK3CD (mouse) [2] and at PIK3CD (Human) [5] were 1800 nM and 2300 nM, respectively.

Regarding `O=c1c2cccc(C(F)(F)F)c2nc(CSc2ncnc3[nH]cnc23)n1-c1ccccc1Cl`, the figures for the inhibition at PIK3CB and at PIK3CA were 7% and 12%, respectively. Besides, the IC50 against PIK3CD worked out at 4200 nM.

Take `O=c1c2ccccc2nc(CSc2ncnc3[nH]cnc23)n1-c1ccccc1Cl`: the concentration giving a half-maximal response (EC50) was 1000 to 5000 nM at PIK3CD (Human) [1]; 2000 nM at PIK3CD (Human) [6]; 900 nM with PIK3CD (mouse) [2]; 2200 nM on PIK3CD (Human) [4]; 5500 nM on PIK3CD (Human) [5]; 2000 nM at PIK3CD (Human) [8]. Moreover, in the test with PIK3CD (mouse) [7], the inhibition was 99%.

As to `COc1ccccc1Cn1c(CSc2ncnc3[nH]cnc23)nc2ccccc2c1=O`, the EC50 at PIK3CD (Human) [1] was found to be 200 nM; with PIK3CD (mouse) [2], 900 nM; at PIK3CD (Human) [4] it was 5500 nM; at PIK3CD (Human) [5], 4100 nM. This compound yielded an IC50 on PIK3CB of 31000 nM. Moreover, the inhibition against PIK3CB was 27%.

With `Nc1ncnc2c1ncn2Cc1nc2cccc(F)c2c(=O)n1-c1ccccc1Cl`, the IC50 at PIK3CB was found to be 46000 nM. The inhibition against PIK3CB is 18%; on PIK3CG it was 9%. Also, the figures for the EC50 with PIK3CD (mouse) [2], on PIK3CD (Human) [4] and at PIK3CD (Human) [5] were 700 nM, 4300 nM and 3900 nM, respectively.

Consider `O=c1c2c(F)cccc2nc(CSc2ncnc3[nH]cnc23)n1-c1ccccc1Cl`, for which the EC50 amounted to 2000 nM on PIK3CD (Human) [1], 1200 nM in the test with PIK3CD (mouse) [2], 1300 nM at PIK3CD (Human) [4] and 1800 nM at PIK3CD (Human) [5]. The inhibition against PIK3CG stood at 83%.

As to `O=c1c2ccccc2nc(CSc2ncnc3[nH]cnc23)n1-c1ccccc1`, the inhibition against PIK3CG was 39%. In addition, in the test on PIK3CD (mouse) [2], the EC50 was 1400 nM.

As for `Cc1cccc2nc(Cn3cnc4c(N)ncnc43)n(-c3ccccc3C(C)C)c(=O)c12`, the EC50 turned out to be 300 nM at PIK3CD (Human) [1], 100 nM in the test with PIK3CD (mouse) [2], 500 nM at PIK3CD (Human) [4] and 3400 nM on PIK3CD (Human) [5]. On PIK3CA, the IC50 is 49000 nM. Besides, on PIK3CA, the inhibition is -10%.

For the compound `O=c1c2ccccc2nc(CSc2ncnc3[nH]ncc23)n1-c1ccccc1Cl`, the EC50 at PIK3CD (Human) [1] was 1000 nM; in the test with PIK3CD (mouse) [2], 3100 nM; on PIK3CD (Human) [4] it was over 20000 nM; on PIK3CD (Human) [5] it was 5900 nM. For the same compound, the inhibition worked out at 29% against PIK3CB and 38% on PIK3CA. Besides, the IC50 against PIK3CA turned out to be 105000 nM.

As to `O=c1c2c(Cl)cccc2nc(CSc2ncnc3[nH]cnc23)n1-c1ccccc1Cl`, the EC50 on PIK3CD (Human) [1] worked out at 300 nM; with PIK3CD (mouse) [2], 300 nM; on PIK3CD (Human) [4] it was 300 nM; at PIK3CD (Human) [5] it was 4400 nM.

Consider `O=c1cc(N2CCOCC2)oc2c(-c3ccccc3)cccc12`, for which the EC50 with PIK3CD (mouse) [2] was 900 nM. In addition, the inhibition on PIK3CD (Human) [3] (concentration not given here) is 100%.

Regarding `O=c1c2ccccc2nc(CSc2ncnc3[nH]cnc23)n1Cc1ccccc1`, the EC50 on PIK3CD (Human) [1] is 2000 nM; in the test on PIK3CD (mouse) [2], 1200 nM; on PIK3CD (Human) [4], 1300 nM. On PIK3CB, this compound yielded an IC50 of 80000 nM. In addition, the inhibition against PIK3CB was found to be 42%.
